In patent publication US8859768B2, “Heteroaryls and uses thereof” (Millennium Pharmaceuticals, Inc., priority 2010, dated 2014):

Target: T1, Human VPS34 (Homo sapiens, UniProt Q8NEB9)
T1 construct: GST (N); host or cells: SF9 insect cells (baculovirus)
Test: Human VPS34 Enzyme Assay (Adapta TR-FRET)
Format: biochemical
Conditions: compound at 1.111 μM; read-out: Average VPS34 % INH @ 1.111 μM
Experimental: VPS34 (accession number GB:BC033004) was cloned into pDEST20-Thombin as N-terminal GST tagged fusion proteins using the Gateway system (Invitrogen, catalog#11804-013). The sequences were verified before recombinant protein expression using the Baculovirus Expression System with Gateway® Technology.
For expression VPS34 was infected at 1MOI in SF9 cells and harvested 72 hours post infection.
For purification, VPS34 is purified by Glutathione Sepharose 4 Fast Flow (GE Healthcare #17-5132-03) followed by HiTrap Q (GE Healthcare #17-1153-01).
Human VPS34 Enzyme Assay Method
100 nL compounds in DMSO are added to wells of a 384 well microtitre plate (Greiner 780076). At room temperature: 5 ul VPS34 reaction buffer (Invitrogen Assay Buffer Q (diluted 1 in 5 with nanopure water) plus 2 mM DTT and 2 mM MnCl2) containing ATP (20 uM, Promega) and 200 uM PI-PS substrate (Invitrogen PV5122) is added followed immediately by 5 ul VPS34 reaction buffer (as above) containing VPS34 (5 nM, Millennium Protein Sciences Group) and the mixture is incubated with shaking at room temperature for 1 hour. Then 5 ul VPS34 stop-detect mix (as per Invitrogen Adapta Assay kit (PV5009) instructions (contains kinase quench buffer, TR-FRET buffer, Adapta Eu anti-ADP antibody and Alexa Fluor 647 ADP tracer)) is added to quench the reaction. The plates are then incubated for 30 minutes at room temperature with shaking and then read on a BMG PheraStar Plus reader.
3) VPS34 is assayed using Adapta™ Universal Kinase Assay Kit (Invitrogen).

T1 sequence (Q8NEB9 whole entry): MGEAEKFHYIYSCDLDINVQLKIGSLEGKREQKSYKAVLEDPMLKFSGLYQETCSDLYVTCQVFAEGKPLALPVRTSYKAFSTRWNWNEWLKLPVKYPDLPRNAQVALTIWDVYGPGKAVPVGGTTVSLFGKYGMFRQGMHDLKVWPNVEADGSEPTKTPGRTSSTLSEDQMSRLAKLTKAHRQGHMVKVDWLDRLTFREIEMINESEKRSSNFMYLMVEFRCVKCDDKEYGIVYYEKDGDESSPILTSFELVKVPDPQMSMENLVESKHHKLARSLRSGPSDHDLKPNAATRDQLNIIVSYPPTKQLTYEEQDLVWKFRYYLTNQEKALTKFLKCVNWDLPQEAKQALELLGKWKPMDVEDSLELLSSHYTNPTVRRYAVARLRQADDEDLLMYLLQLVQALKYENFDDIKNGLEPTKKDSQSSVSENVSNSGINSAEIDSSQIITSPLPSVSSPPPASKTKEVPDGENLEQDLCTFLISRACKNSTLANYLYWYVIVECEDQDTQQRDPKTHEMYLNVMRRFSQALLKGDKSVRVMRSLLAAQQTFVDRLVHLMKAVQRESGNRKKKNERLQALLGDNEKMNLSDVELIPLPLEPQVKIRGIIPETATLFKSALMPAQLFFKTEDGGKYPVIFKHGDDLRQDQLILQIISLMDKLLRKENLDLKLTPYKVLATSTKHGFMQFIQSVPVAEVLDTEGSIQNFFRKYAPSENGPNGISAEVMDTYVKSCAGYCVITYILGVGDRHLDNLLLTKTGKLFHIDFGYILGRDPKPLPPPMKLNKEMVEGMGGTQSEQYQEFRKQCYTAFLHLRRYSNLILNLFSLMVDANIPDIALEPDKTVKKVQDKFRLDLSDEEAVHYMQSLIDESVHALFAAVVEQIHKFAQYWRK

Compound `CC(=O)Nc1cc(-c2nc(C(=O)Nc3cnccn3)c(-c3ccccc3Cl)o2)c(C)cn1` [Compound I-31, 2-(2-acetamido-5-methylpyridin-4-yl)-5-(2-chlorophenyl)-N-(pyrazin-2-yl)-1,3-oxazole-4-carboxamide] has an inhibition at 1.111 µM of 56%.

`Nc1cc(-c2nc(-c3nnc[nH]3)c(-c3ccccc3Cl)o2)ccn1` [Compound I-32, 4-[5-(2-chlorophenyl)-4-(4H-1,2,4-triazol-3-yl)-1,3-oxazol-2-yl]pyridin-2-amine] gave an inhibition at 1.111 µM of 26%.

In the case of `CC(=O)Nc1cc(-c2nc(-c3ccccc3Cl)c(-c3ncco3)o2)c(C)cn1` [Compound I-33, N-{4-[4′-(2-chlorophenyl)-2,5′-bi-1,3-oxazol-2′-yl]-5-methylpyridin-2-yl}acetamide], the inhibition at 1.111 µM is reported as 102%.

In the case of `CC(=O)Nc1cc(-c2cc(C(=O)NCCOCCO)c(-c3ccccc3Cl)o2)c(C)cn1` [Compound I-34, 5-(2-acetamido-5-methylpyridin-4-yl)-2-(2-chlorophenyl)-N-[2-(2-hydroxyethoxy)ethyl]-3-furamide], the inhibition at 1.111 µM is reported as 128%.

Compound `COC(=O)Nc1cc(-c2nc(-c3nnc[nH]3)c(-c3ccccc3Cl)o2)c(C)cn1` [Compound I-35, methyl {4-[5-(2-chlorophenyl)-4-(4H-1,2,4-triazol-3-yl)-1,3-oxazol-2-yl]-5-methylpyridin-2-yl}carbamate] has an inhibition at 1.111 µM of 117%.

`CC(=O)Nc1cc(-c2cc(-c3nnc[nH]3)c(-c3cc(CN4CCCC4)ccc3Cl)o2)c(C)cn1` [Compound I-36, N-(4-{5-[2-chloro-5-(pyrrolidin-1-ylmethyl)phenyl]-4-(4H-1,2,4-triazol-3-yl)-2-furyl}-5-methylpyridin-2-yl)acetamide] was tested, and the inhibition at 1.111 µM was 129%.

`O=C(Cn1cccn1)Nc1cc(-c2nc(-c3nnc[nH]3)c(-c3ccccc3Cl)o2)ccn1` [Compound I-37, N-{4-[5-(2-chlorophenyl)-4-(4H-1,2,4-triazol-3-yl)-1,3-oxazol-2-yl]pyridin-2-yl}-2-(1H-pyrazol-1-yl)acetamide] was tested, and the inhibition at 1.111 µM was 117%.

`CC(=O)Nc1cc(-c2nc(C(=O)NCc3cccs3)c(-c3ccccc3Cl)o2)c(C)cn1` [Compound I-38, 2-(2-acetamido-5-methylpyridin-4-yl)-5-(2-chlorophenyl)-N-(2-thienylmethyl)-1,3-oxazole-4-carboxamide] was tested, and the inhibition at 1.111 µM was 43%.

Work on `CC(=O)Nc1cc(-c2nc(-c3ccccc3Cl)c(-c3nnc[nH]3)o2)c(C)cn1` [Compound I-39, N-{4-[4-(2-chlorophenyl)-5-(4H-1,2,4-triazol-3-yl)-1,3-oxazol-2-yl]-5-methylpyridin-2-yl}acetamide] yielded an inhibition at 1.111 µM of 125%.

Work on `CC(=O)Nc1cc(-c2nc(-c3cc(CN(C)C)ccc3Cl)c(-c3nnc[nH]3)o2)c(C)cn1` [Compound I-40, N-{4-[4-{2-chloro-5-[(dimethylamino)methyl]phenyl}-5-(4H-1,2,4-triazol-3-yl)-1,3-oxazol-2-yl]-5-methylpyridin-2-yl}acetamide] yielded an inhibition at 1.111 µM of 115%.

`CC(=O)Nc1cc(-c2cc(C(=O)NCCc3cn4ccccc4n3)c(-c3ccccc3Cl)o2)c(C)cn1` [Compound I-41, 5-(2-acetamido-5-methylpyridin-4-yl)-2-(2-chlorophenyl)-N-[2-(imidazo[1,2-a]pyridin-2-yl)ethyl]-3-furamide] showed an inhibition at 1.111 µM of 90%.

`CC(=O)Nc1cc(-c2cc(C(=O)NCc3cccs3)c(-c3ccccc3Cl)o2)c(C)cn1` [Compound I-42, 5-(2-acetamido-5-methylpyridin-4-yl)-2-(2-chlorophenyl)-N-(2-thienylmethyl)-3-furamide] showed an inhibition at 1.111 µM of 117%.

Work on `C=CCCC(=O)Nc1cc(-c2nc(-c3nnc[nH]3)c(-c3ccccc3Cl)o2)ccn1` [Compound I-43, N-{4-[5-(2-chlorophenyl)-4-(4H-1,2,4-triazol-3-yl)-1,3-oxazol-2-yl]pyridin-2-yl}pent-4-enamide] yielded an inhibition at 1.111 µM of 98%.

In the case of `CC(=O)Nc1cc(-c2cc(C(=O)NCc3ccccn3)c(-c3ccccc3Cl)o2)c(C)cn1` [Compound I-44, 5-(2-acetamido-5-methylpyridin-4-yl)-2-(2-chlorophenyl)-N-(pyridin-2-ylmethyl)-3-furamide], the inhibition at 1.111 µM is reported as 150%.

`COCCC(=O)Nc1cc(-c2nc(-c3nnc[nH]3)c(-c3ccccc3Cl)o2)ccn1` [Compound I-45, N-{4-[5-(2-chlorophenyl)-4-(4H-1,2,4-triazol-3-yl)-1,3-oxazol-2-yl]pyridin-2-yl}-3-methoxypropanamide] gave an inhibition at 1.111 µM of 104%.

In the case of `CON(C)C(=O)c1cc(-c2cc(NC(C)=O)ncc2C)oc1-c1ccccc1Cl` [Compound I-46, 5-(2-acetamido-5-methylpyridin-4-yl)-2-(2-chlorophenyl)-N-methoxy-N-methyl-3-furamide], the inhibition at 1.111 µM is reported as 89%.

Compound `CC(=O)Nc1cc(-c2nc(C(=O)NCc3cccnc3)c(-c3ccccc3Cl)o2)c(C)cn1` [Compound I-47, 2-(2-acetamido-5-methylpyridin-4-yl)-5-(2-chlorophenyl)-N-(pyridin-3-ylmethyl)-1,3-oxazole-4-carboxamide] has an inhibition at 1.111 µM of 31%.

For `CC(=O)Nc1cc(-c2cc(-c3cc[nH]n3)c(-c3ccccc3Cl)o2)c(C)cn1` [Compound I-48, N-{4-[5-(2-chlorophenyl)-4-(1H-pyrazol-3-yl)-2-furyl]-5-methylpyridin-2-yl}acetamide], the inhibition at 1.111 µM was 130%.

`Clc1ccccc1-c1oc(-c2ccncc2)nc1-c1nnc[nH]1` [Compound I-49, 4-[5-(2-chlorophenyl)-4-(4H-1,2,4-triazol-3-yl)-1,3-oxazol-2-yl]pyridine] was tested, and the inhibition at 1.111 µM was 19%.

`CC(=O)Nc1cc(-c2nc(N3CCCS3(=O)=O)c(-c3nnc[nH]3)o2)c(C)cn1` [Compound I-50, N-{4-[4-(1,1-dioxidoisothiazolidin-2-yl)-5-(4H-1,2,4-triazol-3-yl)-1,3-oxazol-2-yl]-5-methylpyridin-2-yl}acetamide] showed an inhibition at 1.111 µM of 115%.

With `CC(=O)Nc1cc(-c2nc(-c3cc(CN4CCCC4)ccc3Cl)c(C(=O)O)o2)c(C)cn1` [Compound I-51, 2-(2-acetamido-5-methylpyridin-4-yl)-4-[2-chloro-5-(pyrrolidin-1-ylmethyl)phenyl]-1,3-oxazole-5-carboxylic acid] the inhibition at 1.111 µM was 131%.

Work on `CNC(=O)c1nc(-c2cc(NC(C)=O)ncc2C)oc1-c1ccccc1Cl` [Compound I-52, 2-(2-acetamido-5-methylpyridin-4-yl)-5-(2-chlorophenyl)-N-methyl-1,3-oxazole-4-carboxamide] yielded an inhibition at 1.111 µM of 117%.

For `CC(=O)Nc1cc(-c2cc(C(=O)NCc3ccccc3)c(-c3ccccc3Cl)o2)c(C)cn1` [Compound I-53, 5-(2-acetamido-5-methylpyridin-4-yl)-N-benzyl-2-(2-chlorophenyl)-3-furamide], the inhibition at 1.111 µM was 104%.

`CNC(=O)c1cc(-c2cc(NC(C)=O)ncc2C)oc1-c1ccccc1Cl` [Compound I-54, 5-(2-acetamido-5-methylpyridin-4-yl)-2-(2-chlorophenyl)-N-methyl-3-furamide] was tested, and the inhibition at 1.111 µM was 152%.

With `CC(=O)Nc1cc(-c2nc(C(=O)NCc3ccccc3)c(-c3ccccc3Cl)o2)c(C)cn1` [Compound I-55, 2-(2-acetamido-5-methylpyridin-4-yl)-N-benzyl-5-(2-chlorophenyl)-1,3-oxazole-4-carboxamide] the inhibition at 1.111 µM was 20%.

In the case of `CC(=O)Nc1cc(-c2cc(C(=O)O)c(-c3ccccc3Cl)o2)c(C)cn1` [Compound I-56, 5-(2-acetamido-5-methylpyridin-4-yl)-2-(2-chlorophenyl)-3-furoic acid], the inhibition at 1.111 µM is reported as 139%.

With `CC(=O)Nc1cc(-c2nc(-c3ccccc3Cl)c(-c3cc[nH]n3)o2)c(C)cn1` [Compound I-57, N-{4-[4-(2-chlorophenyl)-5-(1H-pyrazol-3-yl)-1,3-oxazol-2-yl]-5-methylpyridin-2-yl}acetamide] the inhibition at 1.111 µM was 135%.

Compound `O=C(Cc1ccc(O)cc1)Nc1cc(-c2nc(-c3nnc[nH]3)c(-c3ccccc3Cl)o2)ccn1` [Compound I-58, N-{4-[5-(2-chlorophenyl)-4-(4H-1,2,4-triazol-3-yl)-1,3-oxazol-2-yl]pyridin-2-yl}-2-(4-hydroxyphenyl)acetamide] has an inhibition at 1.111 µM of 94%.

`CCNC(=O)c1nc(-c2cc(NC(C)=O)ncc2C)oc1-c1ccccc1Cl` [Compound I-59, 2-(2-acetamido-5-methylpyridin-4-yl)-5-(2-chlorophenyl)-N-ethyl-1,3-oxazole-4-carboxamide] was tested, and the inhibition at 1.111 µM was 101%.

`CC(=O)Nc1cc(-c2nc(-c3nccs3)c(-c3ccccc3Cl)o2)c(C)cn1` [Compound I-60, N-{4-[5-(2-chlorophenyl)-4-(1,3-thiazol-2-yl)-1,3-oxazol-2-yl]-5-methylpyridin-2-yl}acetamide] gave an inhibition at 1.111 µM of 122%.

Compound `CC(=O)Nc1cc(-c2cc(C(=O)N(C)C)c(-c3ccccc3Cl)o2)c(C)cn1` [Compound I-61, 5-(2-acetamido-5-methylpyridin-4-yl)-2-(2-chlorophenyl)-N,N-dimethyl-3-furamide] has an inhibition at 1.111 µM of 96%.

For `CC(=O)Nc1cc(-c2nc(C(=O)NCCCn3ccnc3)c(-c3ccccc3Cl)o2)c(C)cn1` [Compound I-63, 2-(2-acetamido-5-methylpyridin-4-yl)-5-(2-chlorophenyl)-N-[3-(1H-imidazol-1-yl)propyl]-1,3-oxazole-4-carboxamide], the inhibition at 1.111 µM was 14%.
